Assay results: the supplement of paper PMC10307832

Tests used:
Assay in all cases: relative viability (nuclei count vs DMSO), 5 days (fraction); higher = more cells survive
[1] = compound: C[C@]12O[C@H](C[C@]1(O)CO)n1c3ccccc3c3c4c(c5c6ccccc6n2c5c31)CNC4=O [Lestaurtinib] + C[C@]1(O)C[C@@H](c2nc(-c3ccc4ccc(-c5ccccc5)nc4c3)c3c(N)nccn32)C1 [Linsitinib] (partner 1 µM)
In short: (§1)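 A single step with final 0.05% Triton X-100, 1% formaldehyde and 1 ug/ml Hoechst fixed the cells and stained nuclei 5 days after treatment. Lung cancer cell lines in 1536-well plates had been treated by pin tool the day after seeding with one drug alone or a fixed anchor-drug dose plus five library-drug doses (not always all listed) in √10 steps, and nuclei were counted on 4× images. Relative viability is the ratio of nuclei in treated wells to nuclei in vehicle wells, taken as the median of duplicate plates.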

[2] = compound: C1/C(=C\C2=CC=CS2)/C(=O)/C(=C/C3=CC=CS3)/C1 + CC1(C)CCC(c2ccc(Cl)cc2)=C(CN2CCN(c3ccc(C(=O)NS(=O)(=O)c4ccc(N[C@H](CCN5CCOCC5)CSc5ccccc5)c(S(=O)(=O)C(F)(F)F)c4)cc3)CC2)C1 [Navitoclax] (partner 0.5 µM)
In short: as §1

TPCA-1 + OSI-027 = compound: C1=CC(=CC=C1C2=CC(=C(S2)NC(=O)N)C(=O)N)F [TPCA-1] + COc1cccc2cc(-c3nc([C@H]4CC[C@H](C(=O)O)CC4)n4ncnc(N)c34)[nH]c12 [OSI-027] (partner 0.5 µM)
In short: as §1

[3] = compound: C[C@]12O[C@H](C[C@]1(O)CO)n1c3ccccc3c3c4c(c5c6ccccc6n2c5c31)CNC4=O [Lestaurtinib] + CC(=O)Nc1cccc(-n2c(=O)n(C3CC3)c(=O)c3c(Nc4ccc(I)cc4F)n(C)c(=O)c(C)c32)c1 [Trametinib] (partner 0.02 µM)
In short: as §1

| Cell Line | relative viability ([1]; first compound 0.005 µM) | relative viability ([1]; first compound 0.01581 µM) | relative viability ([1]; first compound 0.05 µM) | relative viability ([1]; first compound 0.1581 µM) | relative viability ([1]; first compound 0.5 µM) | relative viability ([2]; first compound 0.2 µM) | relative viability ([2]; first compound 0.6325 µM) | relative viability ([2]; first compound 2 µM) | relative viability ([2]; first compound 6.325 µM) | relative viability ([2]; first compound 20 µM) | relative viability (TPCA-1 + OSI-027; first compound 0.04 µM) | relative viability (TPCA-1 + OSI-027; first compound 0.1265 µM) | relative viability (TPCA-1 + OSI-027; first compound 0.4 µM) | relative viability (TPCA-1 + OSI-027; first compound 1.265 µM) | relative viability (TPCA-1 + OSI-027; first compound 4 µM) | relative viability ([3]; first compound 0.005 µM) | relative viability ([3]; first compound 0.01581 µM) | relative viability ([3]; first compound 0.05 µM) | relative viability ([3]; first compound 0.1581 µM) | relative viability ([3]; first compound 0.5 µM) |
| --- | --- | --- | --- | --- | --- | --- | --- | --- | --- | --- | --- | --- | --- | --- | --- | --- | --- | --- | --- | --- |
| HCC-78 | 0.53 | 0.419 | 0.413 | 0.225 | 0.234 | 0.81 | 0.786 | 0.82 | 0.682 | 0.782 | 0.411 | 0.357 | 0.385 | 0.335 | 0.337 | 0.832 | 0.807 | 0.578 | 0.522 | 0.284 |
| NCI-H1395 | 1.07 | 1.2 | 0.836 | 0.894 | 0.421 | 1.28 | 1.65 | 1.23 | 1.04 | 1.15 | 0.745 | 0.631 | 0.738 | 0.585 | 0.592 | 1.17 | 0.896 | 0.927 | 0.923 | 0.608 |
| NCI-H2126 | 0.725 | 0.735 | 0.573 | 0.605 | 0.585 | 0.941 | 0.79 | 0.832 | 0.628 | 0.845 | 0.623 | 0.961 | 0.786 | 0.685 | 0.616 | 0.625 | 0.6 | 0.624 | 0.52 | 0.578 |
| H3255 | 0.986 | 1.07 | 0.864 | 0.668 | 0.457 | 0.583 | 0.501 | 0.669 | 0.393 | 0.453 | 0.674 | 0.578 | 0.592 | 0.463 | 0.483 | 0.587 | 0.787 | 0.496 | 0.546 | 0.386 |
| HCC-15 | 0.98 | 0.958 | 0.71 | 0.529 | 0.159 | 0.696 | 0.676 | 0.682 | 0.621 | 0.615 | 0.831 | 0.492 | 0.677 | 0.504 | 0.262 | 0.405 | 0.409 | 0.306 | 0.364 | 0.189 |
| NCI-H2009 | 1.25 | 1.23 | 1.09 | 1.01 | 0.581 | 1.19 | 1.21 | 1.06 | 1.15 | 1.16 | 0.773 | 0.647 | 0.623 | 0.406 | 0.327 | 0.28 | 0.233 | 0.206 | 0.235 | 0.185 |
| HCC-44 | 0.597 | 0.725 | 0.577 | 0.88 | 0.366 | 0.903 | 0.987 | 0.935 | 0.832 | 0.895 | 0.64 | 0.462 | 0.503 | – | 0.495 | 1.04 | 1.04 | 1.04 | 1.16 | 0.593 |
| COR-L23 | 1 | 0.858 | – | 0.471 | 0.153 | 1.06 | 1.09 | 1.02 | 0.864 | 0.967 | 0.749 | 0.706 | 0.823 | 0.683 | 0.286 | 0.755 | 0.652 | 0.272 | 0.317 | 0.0849 |
